The values that follow come from patent US20220054515A1, “COMPOSITION AND METHOD FOR PROMOTING INTESTINAL BARRIER HEALING” (Glycom A/S, priority 2018, published 2022).

As a reminder, the EC50 is the concentration that produces a half-maximal response. Low values mean an effect from little substance, high ones a need for much substance.

In the experiment the target is T1, GPR35 (Homo sapiens, UniProt Q9HC97).
T1 construct: host or cells: PathHunter GPR35 cell line
In words: GPR35 activation, PathHunter β-Arrestin assay (DiscoverX). The experiment is classed as cell-based. The following applies: β-arrestin recruitment; for activation of GPR35 (result in words): highest concentration tested 10 mM; for EC50: β-Gal enzyme fragment complementation, chemiluminescence, highest concentration 10 mM, 3× dilutions, duplicate. The method, then:
Six human milk oligosaccharides (LNnT, LNT, 2′-FL, DFL, 6′-SL and 3′-SL) were screened for their ability to activate the GPR35 receptor in an in vitro assay. The screening was conducted by DiscoverX (Fremont, Calif., USA) using the PathHunter β-Arresin assay. This assay monitored the activation of GPR35 expressed in cultured cells, using Enzyme Fragment Complementation with β-galactosidase (β-Gal) as the functional reporter. […] EA was fused to […]. When the GPR35 is activated and β-Arrestin is recruited to the receptor, PK and EA complementation occurs, restoring β-Gal activity, which was measured using chemiluminescent Detection Reagents.
The GPR35 cell line was expanded from frozen stocks and cultured according to standard procedures. Cells were seeded in a total volume of 20 μl into white walled, 384-well microplates and incubated at 37° C. for the appropriate time prior to testing. All of the testings were done in duplicate.
HMO samples were shipped to DiscoverX as concentrated stocks in Phosphate Buffered saline. On the test day, a 5× compound working intermediate was prepared in PBS. Five μl of 5× sample were added to cells and incubated at room temperature for 3 to 5 hours.
Assay signal was generated through a single addition of 12.5 μl (50 v/v %) of PathHunter Detection reagent cocktail, followed by one-hour incubation at room temperature. Microplates were read following signal generation with a PerkinElmer Envision™ instrument for chemiluminescent signal detection. Zaprinast (which is known to be an activator of GPR35) was used as positive control. Dose-responses were generated by iterative 3× dilutions of the highest concentration tested (10 mM).
In general terms: Recruitment of arrestin is a read-out of receptor activation apart from second messengers.

Molecules are shown by their SMILES.

T1 sequence (Q9HC97 whole entry): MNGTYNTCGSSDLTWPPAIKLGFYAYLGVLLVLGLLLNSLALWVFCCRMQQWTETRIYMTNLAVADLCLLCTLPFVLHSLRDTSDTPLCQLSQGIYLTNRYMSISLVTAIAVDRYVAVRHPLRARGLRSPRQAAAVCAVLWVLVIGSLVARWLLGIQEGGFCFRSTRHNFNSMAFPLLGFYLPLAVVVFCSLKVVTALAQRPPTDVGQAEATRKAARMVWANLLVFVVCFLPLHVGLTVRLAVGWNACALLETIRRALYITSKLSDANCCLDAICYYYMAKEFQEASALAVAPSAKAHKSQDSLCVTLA

Regarding `CC(=O)N[C@H]1[C@H](O[C@H]2[C@@H](O)[C@@H](CO)O[C@@H](O[C@H]3[C@H](O)[C@@H](O)C(O)O[C@@H]3CO)[C@@H]2O)O[C@H](CO)[C@@H](O[C@@H]2O[C@H](CO)[C@H](O)[C@H](O)[C@H]2O)[C@@H]1O` (mixture of isomers) [LNnT, lacto-N-neotetraose], the “activation of GPR35 (result in words)” value is recorded as “No activation”. In the case of `CC(=O)N[C@H]1[C@H]([C@H](O)[C@H](O)CO)O[C@@](O[C@H]2[C@@H](O)[C@@H](CO)O[C@@H](O[C@H]3[C@H](O)[C@@H](O)C(O)O[C@@H]3CO)[C@@H]2O)(C(=O)O)C[C@@H]1O` (some centres unmarked) [3′-SL, 3′-sialyllactose], the “activation of GPR35 (result in words)” value is listed as “No activation”.

In turn, `CC(=O)N[C@H]1[C@H]([C@H](O)[C@H](O)CO)O[C@@](OC[C@H]2O[C@@H](O[C@H]3[C@H](O)[C@@H](O)[C@H](O)O[C@@H]3CO)[C@H](O)[C@@H](O)[C@H]2O)(C(=O)O)C[C@@H]1O` [6′-SL, 6′-sialyllactose] returned an EC50 of 6.5 mM.

For `C[C@@H]1O[C@@H](O[C@H]2[C@H](O[C@H]3[C@H](O[C@@H]4O[C@@H](C)[C@@H](O)[C@@H](O)[C@@H]4O)[C@@H](O)C(O)O[C@@H]3CO)O[C@H](CO)[C@H](O)[C@@H]2O)[C@@H](O)[C@H](O)[C@@H]1O` (some centres unmarked) [DFL, difucosyllactose], the “activation of GPR35 (result in words)” value is reported as “No activation”. Regarding `CC(=O)N[C@H]1[C@H](O[C@H]2[C@@H](O)[C@@H](CO)O[C@@H](O[C@H]3[C@H](O)[C@@H](O)C(O)O[C@@H]3CO)[C@@H]2O)O[C@H](CO)[C@@H](O)[C@@H]1O[C@@H]1O[C@H](CO)[C@H](O)[C@H](O)[C@H]1O` (some centres unmarked) [LNT, lacto-N-tetraose], the midpoint of the response, the EC50, lay at 4.5 mM.
